Our source for the Kd and IC50 values is paper PMC8892522 (Proceedings of the National Academy of Sciences of the …, 2022).

Assay [1] concerns the target T1, soluble epoxide hydrolase (sEH) (Homo sapiens, UniProt P34913).
T1 sequence (P34913 230-555): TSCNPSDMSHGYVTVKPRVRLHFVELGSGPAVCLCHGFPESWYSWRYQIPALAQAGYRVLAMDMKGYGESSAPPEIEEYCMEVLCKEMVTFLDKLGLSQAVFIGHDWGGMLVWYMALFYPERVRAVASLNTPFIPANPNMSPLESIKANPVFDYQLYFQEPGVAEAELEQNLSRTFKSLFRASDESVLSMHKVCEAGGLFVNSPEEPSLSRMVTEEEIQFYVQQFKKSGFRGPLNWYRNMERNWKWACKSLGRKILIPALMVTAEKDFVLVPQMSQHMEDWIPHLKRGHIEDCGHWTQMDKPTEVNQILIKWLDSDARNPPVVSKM
Description: cocrystal structure. It is filed as binding.

The target of assay [2] is T2, soluble epoxide hydrolase (sEH) (Mus musculus, UniProt P34914).
T2 sequence (P34914 1-554): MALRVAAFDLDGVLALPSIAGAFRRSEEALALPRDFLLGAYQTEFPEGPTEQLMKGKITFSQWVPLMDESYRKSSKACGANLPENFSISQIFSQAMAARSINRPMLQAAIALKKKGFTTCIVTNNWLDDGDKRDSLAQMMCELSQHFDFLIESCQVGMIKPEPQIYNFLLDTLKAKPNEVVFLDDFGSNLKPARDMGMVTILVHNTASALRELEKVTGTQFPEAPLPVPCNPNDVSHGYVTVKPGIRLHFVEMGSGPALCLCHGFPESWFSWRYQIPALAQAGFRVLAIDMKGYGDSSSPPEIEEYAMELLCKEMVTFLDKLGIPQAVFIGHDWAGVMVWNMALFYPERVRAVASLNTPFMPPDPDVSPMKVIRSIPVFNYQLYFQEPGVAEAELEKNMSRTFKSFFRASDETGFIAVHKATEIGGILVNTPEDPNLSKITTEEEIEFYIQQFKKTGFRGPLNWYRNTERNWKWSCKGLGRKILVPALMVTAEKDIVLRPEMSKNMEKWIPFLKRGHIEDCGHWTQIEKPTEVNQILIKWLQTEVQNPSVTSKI
Description: fluorescent substrate. Type of assay: biochemical.

In the case of `C=C(C)[C@H](CC=C(C)C)Cc1c(O)cc(OC)c2c1O[C@H](c1ccc(O)cc1O)CC2=O` [kurarinone], binding in assay [1] was characterised by a dissociation constant (Kd) of 1450 nM. The midpoint of inhibition in assay [2], the IC50, lay at 420 nM.

Broadly, the Kd is the concentration at which binding is half-saturated. A low value points to tighter binding. As usually defined, the IC50 is the midpoint of a concentration-inhibition curve.
